This is an account of results in patent EP1105136B1, “METHOD FOR TREATING OCULAR NEOVASCULAR DISEASES” (Novartis AG, priority 1998, dated 2000).

The target in one series is c-erbB2 (Homo sapiens, UniProt P04626). As to the kind of experiment: cellular autophosphorylation assay in transfected Chinese hamster ovary cells. The format is cell-based. The settings on record: Chinese hamster ovary cells transfected with RTK gene.
The next series deals with VEGF receptors. The description is as above. The settings on record: Chinese hamster ovary cells transfected with RTK gene. It counts as cell-based. The procedure: (§1) In vivo activity requires drugs to enter cells and therefore agents are tested in cellular autophosphorylation assays, using Chinese hamster ovary cells transfected with one of several RTK genes.
The next series concerns PDGF receptors. The description is as above. It counts as cell-based. The settings on record: Chinese hamster ovary cells transfected with RTK gene. The procedure: as §1
Another series addresses T1, c-Kit (Homo sapiens, UniProt P10721).
T1 construct: expressed in transfected cells; host or cells: Chinese hamster ovary cells
The description is as above. It counts as cell-based. The settings on record: Chinese hamster ovary cells transfected with RTK gene. The procedure:
as §1

Series [1] relates to retinal neovascularization in mice with ischemic retinopathy. The experiment in a line: retinal neovascularization in mice with oxygen-induced ischemic retinopathy. The format is in vivo, C57/BL6J mice.
Description: Ischemic retinopathy is produced in C57/BL6J mice by the following method: • Seven-day-old mice and their mothers are placed in an airtight incubator and exposed to an atmosphere of 75 ± 3% oxygen for 5 days. Incubator temperature is maintained at 23 ± 2°C, and oxygen is measured every 8 hours with an oxygen analyzer. After 5 days, the mice are removed from the incubator, placed in room air, and drug treatment is begun. […] Vehicle (control) or vehicle containing various concentrations of drug (volume = 50 µl in neonates and 100 µl in adult mice) is placed in the stomach by gavage. After 5 days of treatment at P17, mice are sacrificed, eyes are rapidly removed and frozen in optimum cutting temperature embedding compound (OCT; Miles Diagnostics, Elkhart, IN) or fixed in 10% phosphate-buffered formalin and embedded in paraffin. Adult C57BL6J mice are also treated by gavage with drug or vehicle and after 5 days, they are sacrificed and their eyes are processed for frozen or paraffin sections.
Slides are rinsed with 0.05M Tris-buffered saline, pH 7.6 (TBS) and incubated 2 hours at room temperature with biotinylated lectin. […] Some slides are counterstained with hematoxyln and all are mounted with Cytoseal.
The entire eye is sampled by staining sections roughly 50-60 µm apart, which provided 13 sections per eye for analysis. […] The mean of the 13 measurements from each eye is used as a single experimental value.
Another series concerns the target Flk-1 (Mus musculus, UniProt P35918). The note with it: mouse versus human VEGF receptor 2.
Series [2] relates to choroidal neovascularization. The experiment in a line: laser-induced choroidal neovascularization in mice. The note with it: 50 mg/kg/day by gavage, two weeks after laser.
Series [3] relates to retinal vessels in adult mice. As to the kind of experiment: effect on retinal vessels in adult mice. It counts as in vivo, C57BL6J mice. The note with it: 50 mg/kg/day.
Description: Vehicle (control) or vehicle containing various concentrations of drug (volume = 50 µl in neonates and 100 µl in adult mice) is placed in the stomach by gavage. […] Adult C57BL6J mice are also treated by gavage with drug or vehicle and after 5 days, they are sacrificed and their eyes are processed for frozen or paraffin sections. […] Slides are rinsed with 0.05M Tris-buffered saline, pH 7.6 (TBS) and incubated 2 hours at room temperature with biotinylated lectin. […] Some slides are counterstained with hematoxyln and all are mounted with Cytoseal. […] The mean of the 13 measurements from each eye is used as a single experimental value.
Series [4] relates to retinal vascular development. As to the kind of experiment: retinal vascular development in neonatal mice. It counts as in vivo, C57/BL6J mice. The procedure:
Litters of newborn C57/BL6J mice are divided into treatment and control groups which received daily subcutaneous injections of 10 mg/kg of drug or vehicle, respectively. At P7 or P10, mice are anesthetized with ether, and perfused with 1 ml of phosphate-buffered saline containing 50 mg/ml of fluorescein-labeled dextran (2x10^6 average mw, Sigma, St. Louis, MO).. The eyes are removed and fixed for 1 hour in 10% phosphate-buffered formalin. The cornea and lens are removed and the entire retina is carefully dissected from the eyecup, radially cut from the edge of the retina to the equator in all 4 quadrants, and flat-mounted in Aquamount. with photoreceptors facing upward.

The next series addresses T2, insulin receptor (Homo sapiens, UniProt P06213).
T2 construct: expressed in transfected cells; host or cells: Chinese hamster ovary cells
The experiment in a line: cellular autophosphorylation assay in transfected Chinese hamster ovary cells. The format is cell-based. The note with it: Chinese hamster ovary cells transfected with RTK gene.

Where [5] appears, read: P17 mice, 2.5 mg/kg twice a day.
Setting [6] is: P17 mice, 25 mg/kg twice a day, gavage, 5 days.

T1 sequence (P10721 26-976): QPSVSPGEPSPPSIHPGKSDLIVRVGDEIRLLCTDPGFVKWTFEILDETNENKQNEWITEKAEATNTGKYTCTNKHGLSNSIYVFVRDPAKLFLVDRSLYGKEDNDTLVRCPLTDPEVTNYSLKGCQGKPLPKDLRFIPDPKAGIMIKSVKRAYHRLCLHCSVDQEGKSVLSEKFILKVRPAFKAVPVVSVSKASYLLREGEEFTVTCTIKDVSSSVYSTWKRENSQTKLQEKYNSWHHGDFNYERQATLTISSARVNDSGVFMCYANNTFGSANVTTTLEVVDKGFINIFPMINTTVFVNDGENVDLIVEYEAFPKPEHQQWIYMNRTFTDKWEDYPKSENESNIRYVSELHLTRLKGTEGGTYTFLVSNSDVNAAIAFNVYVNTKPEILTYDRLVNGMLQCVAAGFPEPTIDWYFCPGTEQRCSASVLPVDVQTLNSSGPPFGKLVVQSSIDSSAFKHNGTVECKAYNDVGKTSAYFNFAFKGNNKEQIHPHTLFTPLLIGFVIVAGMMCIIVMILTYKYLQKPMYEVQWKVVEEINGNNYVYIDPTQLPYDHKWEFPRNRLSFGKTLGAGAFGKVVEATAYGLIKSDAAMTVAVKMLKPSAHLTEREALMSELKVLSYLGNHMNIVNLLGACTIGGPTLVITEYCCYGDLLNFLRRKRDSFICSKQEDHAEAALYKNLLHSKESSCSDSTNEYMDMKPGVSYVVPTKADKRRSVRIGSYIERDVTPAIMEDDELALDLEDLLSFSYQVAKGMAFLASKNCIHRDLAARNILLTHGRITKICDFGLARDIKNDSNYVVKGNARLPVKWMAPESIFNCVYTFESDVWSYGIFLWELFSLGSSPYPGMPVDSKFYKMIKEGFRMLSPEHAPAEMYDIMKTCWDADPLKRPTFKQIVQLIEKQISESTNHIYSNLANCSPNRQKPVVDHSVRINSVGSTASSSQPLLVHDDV
T2 sequence (P06213 28-1382, species assumed): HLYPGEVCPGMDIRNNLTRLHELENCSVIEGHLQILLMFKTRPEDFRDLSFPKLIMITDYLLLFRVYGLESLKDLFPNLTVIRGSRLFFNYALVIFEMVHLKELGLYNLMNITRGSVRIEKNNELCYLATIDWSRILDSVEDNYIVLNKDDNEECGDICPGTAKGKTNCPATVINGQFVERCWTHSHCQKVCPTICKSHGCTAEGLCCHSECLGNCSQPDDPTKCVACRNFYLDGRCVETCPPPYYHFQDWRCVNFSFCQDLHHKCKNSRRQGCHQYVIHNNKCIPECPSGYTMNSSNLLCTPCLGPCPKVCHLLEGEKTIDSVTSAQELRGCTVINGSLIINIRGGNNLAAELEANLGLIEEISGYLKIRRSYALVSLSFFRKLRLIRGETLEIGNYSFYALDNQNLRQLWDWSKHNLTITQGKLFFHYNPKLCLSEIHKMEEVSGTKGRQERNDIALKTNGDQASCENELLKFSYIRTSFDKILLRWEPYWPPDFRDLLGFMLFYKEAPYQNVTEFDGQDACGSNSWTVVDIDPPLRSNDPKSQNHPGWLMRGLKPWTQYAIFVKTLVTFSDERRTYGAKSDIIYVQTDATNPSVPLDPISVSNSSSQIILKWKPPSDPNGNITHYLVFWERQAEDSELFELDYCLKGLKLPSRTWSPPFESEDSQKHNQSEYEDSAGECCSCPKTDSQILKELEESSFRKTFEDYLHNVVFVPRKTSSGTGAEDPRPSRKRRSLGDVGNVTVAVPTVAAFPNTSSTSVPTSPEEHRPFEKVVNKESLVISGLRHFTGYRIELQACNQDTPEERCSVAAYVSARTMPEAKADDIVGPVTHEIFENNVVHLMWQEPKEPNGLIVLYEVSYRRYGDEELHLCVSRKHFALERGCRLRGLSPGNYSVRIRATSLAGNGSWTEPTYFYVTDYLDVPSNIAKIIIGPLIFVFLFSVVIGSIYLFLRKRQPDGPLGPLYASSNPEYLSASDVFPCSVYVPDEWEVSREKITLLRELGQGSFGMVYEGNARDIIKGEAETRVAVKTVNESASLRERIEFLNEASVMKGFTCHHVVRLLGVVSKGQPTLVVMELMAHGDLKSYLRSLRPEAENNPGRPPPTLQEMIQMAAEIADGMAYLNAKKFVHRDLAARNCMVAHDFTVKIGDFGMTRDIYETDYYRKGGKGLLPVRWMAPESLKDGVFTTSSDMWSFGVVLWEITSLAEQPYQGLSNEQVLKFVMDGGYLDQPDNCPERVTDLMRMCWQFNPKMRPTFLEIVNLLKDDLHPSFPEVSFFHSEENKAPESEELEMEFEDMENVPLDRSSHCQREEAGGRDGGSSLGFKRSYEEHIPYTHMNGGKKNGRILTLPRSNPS
c-erbB2, sequence (P04626 23-1255): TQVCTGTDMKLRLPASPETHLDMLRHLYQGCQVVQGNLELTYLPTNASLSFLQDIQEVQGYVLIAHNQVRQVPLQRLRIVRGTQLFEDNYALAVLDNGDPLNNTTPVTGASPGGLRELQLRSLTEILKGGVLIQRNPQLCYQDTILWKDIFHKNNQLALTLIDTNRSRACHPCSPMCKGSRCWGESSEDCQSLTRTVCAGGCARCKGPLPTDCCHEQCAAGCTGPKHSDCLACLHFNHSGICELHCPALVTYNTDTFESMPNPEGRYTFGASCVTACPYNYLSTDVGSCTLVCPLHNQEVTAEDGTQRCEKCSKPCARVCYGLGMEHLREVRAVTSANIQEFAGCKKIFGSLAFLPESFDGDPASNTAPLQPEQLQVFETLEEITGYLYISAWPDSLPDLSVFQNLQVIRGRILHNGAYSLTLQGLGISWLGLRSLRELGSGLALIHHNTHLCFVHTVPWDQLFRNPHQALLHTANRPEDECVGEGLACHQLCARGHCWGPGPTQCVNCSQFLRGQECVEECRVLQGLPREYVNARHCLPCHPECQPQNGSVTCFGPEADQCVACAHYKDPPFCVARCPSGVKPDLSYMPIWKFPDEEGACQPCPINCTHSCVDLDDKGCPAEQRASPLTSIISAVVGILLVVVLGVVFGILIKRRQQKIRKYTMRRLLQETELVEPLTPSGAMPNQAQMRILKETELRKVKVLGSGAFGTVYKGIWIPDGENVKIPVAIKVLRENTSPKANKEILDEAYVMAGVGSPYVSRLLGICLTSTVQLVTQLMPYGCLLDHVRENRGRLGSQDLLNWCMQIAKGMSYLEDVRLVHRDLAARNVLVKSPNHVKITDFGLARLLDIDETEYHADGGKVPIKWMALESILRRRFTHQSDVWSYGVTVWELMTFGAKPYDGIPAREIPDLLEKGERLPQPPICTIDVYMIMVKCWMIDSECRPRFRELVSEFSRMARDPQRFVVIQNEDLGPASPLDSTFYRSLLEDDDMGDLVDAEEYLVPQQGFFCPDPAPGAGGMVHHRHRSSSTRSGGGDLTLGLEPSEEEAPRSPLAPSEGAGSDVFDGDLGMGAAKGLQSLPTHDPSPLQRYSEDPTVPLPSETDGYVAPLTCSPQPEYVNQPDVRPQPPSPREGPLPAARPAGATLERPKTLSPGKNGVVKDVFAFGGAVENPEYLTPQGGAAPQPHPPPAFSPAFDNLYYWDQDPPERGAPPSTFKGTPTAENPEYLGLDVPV
Flk-1, sequence (P35918 832-1160 limits assumed): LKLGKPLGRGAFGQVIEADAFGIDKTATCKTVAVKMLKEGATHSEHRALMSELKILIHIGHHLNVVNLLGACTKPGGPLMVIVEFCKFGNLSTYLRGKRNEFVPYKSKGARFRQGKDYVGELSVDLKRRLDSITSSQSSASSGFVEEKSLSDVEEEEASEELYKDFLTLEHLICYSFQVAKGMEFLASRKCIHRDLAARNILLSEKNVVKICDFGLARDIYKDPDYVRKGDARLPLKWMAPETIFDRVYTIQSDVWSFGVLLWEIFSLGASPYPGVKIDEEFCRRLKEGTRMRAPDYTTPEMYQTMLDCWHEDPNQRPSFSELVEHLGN

Take `Clc1ccc(Nc2nnc(Cc3ccncc3)c3ccccc23)cc1` [CGP 79787D]: on c-erbB2, the autophosphorylation result is listed as “poor inhibitor”. Further, in the series with VEGF receptors, the autophosphorylation result is recorded as “inhibits”. Also, the autophosphorylation result in the series on PDGF receptors is reported as “inhibits”. Further, at c-Kit, the autophosphorylation entry is listed as “inhibits”. Moreover, in series [1] (P17 mice, 0.25 mg/kg), the “staining in the inner nuclear layer” value is listed as “no identifiable decrease” and the “total endothelial staining in the retina” value was “decreased total endothelial staining in the retina that is not statistically significant”. In addition, in [1] (setting [5]), the “endothelial cell staining in the retina” value is “significantly less than vehicle-treated controls” and the “endothelial staining in the inner nuclear layer” value is on record as “some decrease”. In addition, the “endothelial cell staining in the inner nuclear layer and outer plexiform layer (deep capillary bed)” value in [1] (P17 mice, 25 mg/kg twice a day) is “striking absence”. Also, in [1] (setting [6]), the “endothelial cell staining within the retina” value is on record as “dramatic decrease” and the “neovascularization (endothelial cells on the surface of the retina)” value is reported as “complete inhibition”. On Flk-1, the “less potent as an inhibitor of mouse VEGF receptor 2 compared to the human receptor” value is “about 10 fold”. Further, in [2], the “choroidal neovascularization at the site of each laser-induced rupture of Bruch's membrane” value is “very little if any” and the overlying retinal vessels entry was “appeared normal”. Moreover, in [2] (n = 5), the “integrated area of lectin staining per lesion” value is 0.01124±0.001483 mm^2. Also, the “total area of endothelial staining in the retina or the appearance of retinal vessels compared to vehicle-treated mice” value in [3] was “no difference”. The “extension of retinal vessels” value in [4] (P7, injections of 10 mg/kg starting on P0) is “only extended about half way to the periphery”. Besides, the “extension of the superficial capillary bed” value in series [4] (P10, injections of 10 mg/kg starting on P0) was “has not yet reached the edge of the retina”. Moreover, the autophosphorylation result on insulin receptor is listed as “poor inhibitor”.

Take `O=c1c(-c2ccc(O)cc2)coc2cc(O)cc(O)c12` [Genistein, 4', 5,7-trihydroxyisoflavone, reference compound]: the “endothelial staining in the retina” value in [1] (dose comparable to the highest dose of CGP 79787D) is reported as “no significant decrease”.
